Test results from patent publication US5681817A, “Treatment of ovarian estrogen dependent conditions” (The Medical College of Hampton Roads, priority 1994, dated 1997).
Entries after “also recorded” stand apart in the source; their conditions may differ.

Assays:
[1] = test system: bone mineral density of the lumbar spine; assay: Dual X-ray absorptiometry bone mineral density of the lumbar spine; assay type: in vivo, cynomolgus monkeys (Macaca facularis); details: for change in bone density: after three months of treatment, group level; for bone density in fast bone losers: group 1 animals losing bone on GnRH analog (e.g. monkey 2190, FIG. 3), three months GnRH analog, then three months antiprogestin
Experimental: (§1) Primates were divided equally into four treatment groups (N=8). Group 1 was given monthly injections of the gonadotropin releasing hormone agonist, in an amount of 80 μg/kg im on menstrual day 21 of the second laparotomy cycle. This was continued at 28 day intervals for a total of 3 injections, at which time weekly injections of the antiprogestin RU 486 began, (5 mg/kg im, in oil, initially, then 2 mg/kg/week). RU 486 was continued for a period of 24 weeks.
(§2) Group 2 was given weekly im injections of RU 486 alone (5 mg/kg initially, then 2 mg/kg/week) beginning on menstrual day 1 of the cycle after the endometriosis was confirmed. This was continued for a treatment period of 36 weeks. Group 3 was given doses of the GnRH analog alone for 36 weeks. Group 4 was a control and received vehicle, 0.5 ml of normal saline im, weekly for 36 weeks.
Urine was collected at the time of blood sampling. The first sample was taken at the time of the first laparotomy and the second sample was taken at the time of the first injection with subsequent samples drawn every four weeks from the time of the second urine sample. Dual X-ray absorptiometry (DXA, Norland) was used to measure the bone mineral density of the lumbar spine. Primates were anesthetized with ketamine and restrained to minimize motion artifact. DXA was performed before injections began and at three month intervals until completion of the study.

[2] = test system: peritoneal endometriosis (ectopic endometrial implants); assay: Area of ectopic endometrium on peritoneal surfaces at staging laparotomy; assay type: in vivo, cynomolgus monkeys (Macaca facularis); details: for mean area of peritoneal disease after switch from GnRH analog to RU 486: Group 1, RU 486 for three months after the course of GnRH analog; for area of ectopic endometrium on peritoneal surfaces / size of endometrial implants: post-treatment vs pre-treatment and vs control, FIG. 2, Wilcoxon p<0.05
Experimental: (§3) Using anesthesia (ketamine 20 mg/kg im, xylazine, 1 mg/kg) on day 3 of the menstrual cycle, a diagnostic laparoscopy was performed to rule out pelvic adhesive disease or extant endometriosis. Monkeys with observable pelvic adhesions were excluded. Blood was collected on menstrual days 8-14 via venipuncture (ketamine 10 mg/kg im), and serum assayed for estradiol-17β by RIA. Laparotomy (ketamine 20 mg/kg, xylazine 1 mg/kg) was performed 3-5 days after a clearly defined pre-ovulatory estradiol peak. A 2 cm fundal hysterotomy was performed and approximately 100 mg of endometrium removed by curettage and minced in sterile 0.9% saline. The uterine incision was closed with 4-0 vicryl suture. The minced endometrial tissue was injected sub-peritoneally into five sites, namely, the left and right vesicouterine fold, right and left broad ligaments, and the cul-de-sac.
During the subsequent menstrual cycle, laparotomy was performed 3 to 5 days after the mid-cycle estradiol surge. The presence of ectopic endometrial tissue and the extent of adhesions were noted, with peritoneal implants carefully measured. Photographs of all lesions were taken and assigned a random number for later histological staging of the endometriosis by an independent observer. Biopsies were taken from representative lesions, and the tissue fixed in 10% formalin for histologic examination after hematoxylin and eosin staining.
as §1, §2
After daily injections began, a staging laparotomy was performed every 12 weeks until the end of therapy to assess the progression or regression of the disease.

[3] = test system: female cynomolgus monkeys; assay: Ovulation and serum estradiol/progesterone by RIA in monkeys with induced endometriosis; assay type: in vivo, cynomolgus monkeys (Macaca facularis); details: for mean tonic serum estradiol level: RIA, FIG. 1, control 40.6±43; for suppression of ovulation: treatment alone
Experimental: For the purposes of this study, the gonadotropin releasing hormone agonist selected was leuprolide acetate, the anti-progestin selected was RU 486 and these were administered to female cynomolgus monkeys, which are recognized to be a highly desirable model for human research.
Thirty-six adult female cynomolgus monkeys (Macaca facularis) having regular menstrual cycles were housed in individual cages which had food and water available ad librium.
as §3, §1, §2
Using ketamine anesthesia, blood was collected on alternate days in all groups for 28 days after the initial treatments following confirmation of active endometriosis. The serum was frozen for later analysis. Thereafter, blood was collected weekly. Blood draws continued until spontaneous menses resumed, or two months after the conclusion of injections, whichever came first. Serum was frozen, labelled, and stored for subsequent radioimmunoassay. Estradiol and progesterone were assayed using RIA (ICN Biomedical, Los Angeles, Calif.).

[4] = test system: endometrial and vaginal epithelium; assay: Histological assessment of endometrium and vaginal epithelium (hematoxylin and eosin); assay type: in vivo, cynomolgus monkeys (Macaca facularis); details: for ENDOMETRIUM MENTRUAL PHASE / ENDOMETRIUM THICKNESS / VAGINAL EPITHELIUM AND KERATIN: histology; for ENDOMETRIUM MENTRUAL PHASE / ENDOMETRIUM THICKNESS: hematoxylin and eosin; for VAGINAL EPITHELIUM AND KERATIN: thickness
Experimental: Primates were divided equally into four treatment groups (N=8). Group 1 was given monthly injections of the gonadotropin releasing hormone agonist, in an amount of 80 μg/kg im on menstrual day 21 of the second laparotomy cycle. This was continued at 28 day intervals for a total of 3 injections, at which time weekly injections of the antiprogestin RU 486 began, (5 mg/kg im, in oil, initially, then 2 mg/kg/week). RU 486 was continued for a period of 24 weeks. Group 2 was given weekly im injections of RU 486 alone (5 mg/kg initially, then 2 mg/kg/week) beginning on menstrual day 1 of the cycle after the endometriosis was confirmed. This was continued for a treatment period of 36 weeks. Group 3 was given doses of the GnRH analog alone for 36 weeks. Group 4 was a control and received vehicle, 0.5 ml of normal saline im, weekly for 36 weeks. Vaginal epithelium was obtained at the time of each surgery using Kevorkian biopsy forceps taken from the lateral vaginal side of the upper two-thirds of the vagina. At the time of each laparotomy, a small repeat hysterotomy was performed for the purpose of endometrial sampling for histologic examination.

[5] = test system: endometriosis; details: cited from earlier work
[6] = test system: uterine leiomyomata; details: cited from earlier work

CC#C[C@]1(O)CC[C@H]2[C@@H]3CCC4=CC(=O)CCC4=C3[C@@H](c3ccc(N(C)C)cc3)C[C@@]21C [RU 486, mifepristone]
bone density, PRE-TREATMENT (MEAN ± SD) ([1]; DXA lumbar spine, baseline before injections): 0.501 ± 0.029
bone density, AFTER 3 MONTHS ([1]; DXA lumbar spine, mean ± SD, in group 1 the first 3 months are GnRH analog): 0.541 ± 0.033
change in bone density [1]: marginally significant increase in bone density
bone density in fast bone losers [1]: counteracted this loss; also recorded: returned to baseline
mean area of peritoneal disease after switch from GnRH analog to RU 486 [2]: remained the unchanged
mean area of peritoneal disease after switch from GnRH analog to RU 486 ([2]; listed as antiprogestin): able to sustain the reduced surface of peritoneal endometriosis
area of ectopic endometrium on peritoneal surfaces / size of endometrial implants [2]: unequivocal limiting impact
mean tonic serum estradiol level [3]: 57.8 ± 34.6 pg/mL
suppression of ovulation [3]: suppression of ovulation
vaginal atrophy ([4]; cynomolgus monkey, in vivo): not noted
ENDOMETRIUM MENTRUAL PHASE [4]: interval phase
ENDOMETRIUM THICKNESS ([4]; listed as antiprogestin): thinner than in control monkeys; also recorded: remained moderately thin
VAGINAL EPITHELIUM AND KERATIN ([4]; listed as antiprogestin): greater in the antiprogestin group than in the GnRH analog groups; also recorded: thicker

C#C[C@]1(O)CC[C@H]2[C@@H]3CCC4=Cc5oncc5C[C@]4(C)[C@H]3CC[C@@]21C [danazol, 17-α-pregna-2,4-dien-20-yno[2,3-d]-isoxazol-17-ol]
side effects ([5]; in vivo): many androgenic side effects
efficacy in treatment of endometriosis ([5]; producing a hypoestrogenic milieu): effective medication for the treatment of endometriosis

CC(=O)O[C@]1(C(C)=O)CC[C@H]2[C@@H]3C[C@H](C)C4=CC(=O)CC[C@]4(C)[C@H]3CC[C@@]21C [medoxyprogesterone acetate]
hot flashes and urinary calcium loss ([6]; add-back regimen with leuprolide): reduced
total uterine volume ([6]; add-back regimen with leuprolide, not back to baseline values): modest increase
effect on agonist-induced decrease of nonmyoma volume ([6]; concomitant treatment with leuprolide): reverse the effectiveness

CCNC(=O)[C@@H]1CCCN1C(=O)[C@H](CCCNC(=N)N)NC(=O)[C@H](CC(C)C)NC(=O)[C@@H](CC(C)C)NC(=O)[C@H](Cc1ccc(O)cc1)NC(=O)[C@H](CO)NC(=O)[C@H](Cc1c[nH]c2ccccc12)NC(=O)[C@H](Cc1c[nH]cn1)NC(=O)[C@@H]1CCC(=O)N1 [GnRH analog, leuprolide acetate]
change in bone density [1]: no change
bone density in fast bone losers [1]: significant degree of bone loss
area of ectopic endometrium on peritoneal surfaces / size of endometrial implants [2]: unequivocal limiting impact
mean tonic serum estradiol level [3]: 24.2 ± 17 pg/mL
suppression of ovulation [3]: suppression of ovulation
ENDOMETRIUM MENTRUAL PHASE [4]: weakly proliferative
ENDOMETRIUM THICKNESS [4]: uniformly thin
ENDOMETRIUM THICKNESS ([4]; listed as ANALOG ONLY): THIN
VAGINAL EPITHELIUM AND KERATIN [4]: THIN
